The values that follow come from PubChem BioAssay (NCI).

Among the test systems are A498 renal; SW-620 colon; SK-MEL-28 melanoma; CCRF-CEM leukemia; HS 578T breast; BT-549 breast; SR leukemia; HT29 colon; MDA-MB-231 breast; HL-60(TB) leukemia.
Experiment in all cases: NCI anticancer screen, dose series, 48 h

Where “and” joins values, the source holds several entries; their conditions need not be identical. Identical values can stand only once.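 Five compound concentrations were applied to cells in 96-well plates for 48 hours; endpoints were derived by simple linear interpolation of the resulting dose-response curve. The concentration for 50% growth inhibition is given as GI50. TGI is the concentration that stops growth completely.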 Some results are limits rather than exact numbers.

As for `COc1ccc(/C=C/C(=O)c2ccc(O)c(CN3CCN(c4cc5c(cc4F)c(=O)c(C(=O)O)cn5C4CC4)CC3)c2)cc1`, the GI50 in the experiment with A498 renal is 1.34 µM; with SW-620 colon it was 1.38 µM; with SK-MEL-28 melanoma, 1.72 µM; in the experiment with CCRF-CEM leukemia it was 0.805 µM; in the experiment on HS 578T breast it was 0.714 µM; with BT-549 breast, 1.28 µM. The GI50 is 0.354 µM in the experiment with SR leukemia, 1.08 µM with HT29 colon and 2.19 µM in the experiment on MDA-MB-231 breast. Also, the TGI in the experiment on A498 renal was 5.54 µM; in the experiment with SW-620 colon, more than 100 µM; in the experiment with SK-MEL-28 melanoma, more than 100 µM; in the experiment with CCRF-CEM leukemia it was more than 100 µM; in the experiment with HS 578T breast, more than 100 µM; with BT-549 breast it was more than 100 µM. Further, the TGI in the experiment on SR leukemia was 14.9 µM; with HT29 colon, more than 100 µM; with MDA-MB-231 breast it was 13 µM.

Regarding `COc1cccc(-c2nn(-c3ccccc3)cc2-c2ccnc(NCCCNC(=O)Nc3ccc(Cl)c(Cl)c3)c2)c1`, the GI50 with A498 renal was 2.15 µM; in the experiment on HL-60(TB) leukemia, 2.51 µM; in the experiment with SW-620 colon, 3.02 µM; with SK-MEL-28 melanoma, 1.93 µM; with HS 578T breast it was 2.35 µM; with BT-549 breast it was 3.2 µM. Besides, the GI50 was 1.73 µM in the experiment with SR leukemia, 2.55 µM in the experiment with HT29 colon and 1.97 µM in the experiment with MDA-MB-231 breast. Further, the TGI with A498 renal was determined as 8.08 µM; in the experiment with HL-60(TB) leukemia, 5.81 µM; with SW-620 colon, 10.1 µM; in the experiment with SK-MEL-28 melanoma it was 4.16 µM; in the experiment on HS 578T breast, 7.53 µM; in the experiment on BT-549 breast, 11.2 µM. Besides, the values for the TGI in the experiment on SR leukemia, with HT29 colon and in the experiment on MDA-MB-231 breast were 4.62 µM, 5.19 µM and 5.03 µM, respectively.

Turning to `CCC(C)[C@H]1O[C@]2(C=C[C@@H]1C)C[C@@H]1C[C@@H](C/C=C(\C)[C@@H](OC3C[C@H](OC)C(O[C@H]4C[C@H](OC)[C@@H](O)[C@H](C)O4)[C@H](C)O3)[C@@H](C)/C=C/C=C3\CO[C@@H]4[C@H](O)C(C)=C[C@@H](C(=O)O1)[C@]34O)O2` (stereo partly drawn), the GI50 in the experiment on A498 renal was 0.5 µM; in the experiment on HL-60(TB) leukemia, 1.16 µM; in the experiment on SK-MEL-28 melanoma, 2.08 µM; in the experiment on HS 578T breast, 1.02 µM; in the experiment with BT-549 breast it was 0.864 µM; in the experiment on HT29 colon, 0.857 µM. Also, in the experiment on MDA-MB-231 breast, the GI50 was 1.42 µM. The TGI stood at 1.14 µM in the experiment with A498 renal; 2.59 µM with HL-60(TB) leukemia; 7.23 µM with SK-MEL-28 melanoma; 2.87 µM in the experiment on HS 578T breast; 1.66 µM in the experiment on BT-549 breast; 1.78 µM in the experiment with HT29 colon. In addition, the TGI in the experiment with MDA-MB-231 breast amounted to 5.81 µM.

In the case of `O=[N+]([O-])c1ccc2c(c1)Cc1cc(N=Cc3ccc4c(c3)OCO4)ccc1-2`, the TGI in the experiment with A498 renal, in the experiment with HL-60(TB) leukemia, in the experiment on SW-620 colon, in the experiment with SK-MEL-28 melanoma, with CCRF-CEM leukemia and in the experiment on HS 578T breast was more than 100 µM throughout. Besides, the TGI with BT-549 breast, with HT29 colon and in the experiment with MDA-MB-231 breast was more than 100 µM throughout.

With `Cc1cc(Cl)ccc1Nc1nc(C(F)(F)F)ccc1C(=O)N/N=C/c1ccc(Cl)cc1`, the GI50 is 1.91 µM with A498 renal; 2.1 µM in the experiment on HL-60(TB) leukemia; 2.15 µM in the experiment with SW-620 colon; 2.18 µM with SK-MEL-28 melanoma; 0.384 µM with CCRF-CEM leukemia; 2.53 µM with HS 578T breast. Besides, the GI50 in the experiment on BT-549 breast was 1.34 µM; in the experiment on HT29 colon it was 3.24 µM; in the experiment on MDA-MB-231 breast it was 1.09 µM. In addition, the TGI in the experiment with A498 renal worked out at 6.13 µM; in the experiment on HL-60(TB) leukemia, 4.63 µM; with SW-620 colon, 11 µM; with SK-MEL-28 melanoma it was 12.7 µM; in the experiment on CCRF-CEM leukemia it was 3.39 µM; in the experiment with HS 578T breast, 9.62 µM. Also, the TGI amounted to 4.71 µM in the experiment with BT-549 breast, 10.4 µM with HT29 colon and 4.22 µM in the experiment on MDA-MB-231 breast.

As for `O=C(O)C1OC1(c1cccc(Cl)c1)c1ccccc1Cl` (stereo not drawn), the TGI in the experiment with A498 renal is more than 100 µM; in the experiment on HL-60(TB) leukemia, 55.2 µM; with SW-620 colon, more than 100 µM; with SK-MEL-28 melanoma, 61.3 µM; in the experiment on CCRF-CEM leukemia, 53.3 µM; with HS 578T breast, 52.4 µM. For the same compound, the TGI in the experiment on BT-549 breast is 39 µM; in the experiment with HT29 colon it was 64.7 µM; in the experiment with MDA-MB-231 breast it was 35.8 µM.

With `O=C(Cn1c(=O)c(-c2ccccc2)nc2ccccc21)Nc1ccc(F)cc1`, the GI50 with A498 renal was 13.7 µM; with HL-60(TB) leukemia it was 14.1 µM; in the experiment with SW-620 colon, 67 µM; in the experiment on SK-MEL-28 melanoma it was more than 100 µM; in the experiment on CCRF-CEM leukemia, 6.46 µM; in the experiment with HS 578T breast it was 29.9 µM. Further, the GI50 was 36.4 µM with BT-549 breast, more than 100 µM in the experiment with HT29 colon and 99.7 µM in the experiment with MDA-MB-231 breast. The TGI in the experiment with A498 renal is 97.9 µM; with HL-60(TB) leukemia, 48 µM; with SW-620 colon, more than 100 µM; in the experiment with SK-MEL-28 melanoma, more than 100 µM; with CCRF-CEM leukemia it was more than 100 µM; in the experiment on HS 578T breast it was 88.8 µM. The TGI in the experiment with BT-549 breast, with HT29 colon and in the experiment with MDA-MB-231 breast was more than 100 µM each time.

As to `OCC(O)C(Cl)CCl` (stereo not drawn), the TGI in the experiment with HL-60(TB) leukemia, in the experiment with SW-620 colon, in the experiment on SK-MEL-28 melanoma, in the experiment on CCRF-CEM leukemia, in the experiment on HS 578T breast and in the experiment with BT-549 breast was more than 100 µM in each case. Besides, the TGI with SR leukemia, with HT29 colon and in the experiment on MDA-MB-231 breast was more than 100 µM each time.

As to `COC1/C=C/C(C)C(C(C)C(OC)C(C)CCC(=O)C(C)C(C/C=C/N(C)C=O)OC)OC(=O)/C=C/C=C(\C)CC(OC)CC2=CC(=O)O[C@H](C2)C(C)C(OC)CC(OC)/C=C/C(C)C(OC)C1` (stereo partly drawn), the GI50 in the experiment with A498 renal was 0.0176 µM; in the experiment on SW-620 colon, 0.0198 µM; in the experiment on SK-MEL-28 melanoma, 0.0413 µM; in the experiment with CCRF-CEM leukemia, 0.0218 µM; in the experiment on HS 578T breast it was 0.0297 µM; in the experiment on BT-549 breast it was 0.108 µM. Moreover, the GI50 is 0.00311 µM in the experiment on SR leukemia, 0.0236 µM in the experiment on HT29 colon and 0.0114 µM in the experiment with MDA-MB-231 breast. Further, the TGI in the experiment on A498 renal is 0.0508 µM; with SW-620 colon, 6.95 µM; in the experiment with SK-MEL-28 melanoma, 0.298 µM and 0.0326 µM; with CCRF-CEM leukemia it was 0.0367 µM; in the experiment with HS 578T breast it was 0.071 µM and 0.0601 µM; in the experiment on MDA-MB-231 breast, 0.0584 µM.
